The values below come from patent publication US11377438B2, “2-amino-n-heteroaryl-nicotinamides as Nav1.8 inhibitors” (Merck Sharp & Dohme Corp., priority 2018, dated 2022).

Broadly, the IC50 is the concentration that inhibits the measured activity by half.

The target in the assay is human Nav1.8 (Homo sapiens (Human), UniProt Q9Y5Y9). Description: Nav1.8 Qube automated patch-clamp assay. Format: cell-based. To be noted: human Nav1.8 stably expressed in HEK 293 cells, whole-cell voltage clamp, room temperature; read-out: IC50 (nM) in the Nav 1.8 Qube Assay. On the procedure:
Qube® Assay Experimental Procedure Compounds were tested on human Nav1.8 and Nav1.5 channels stably expressed in human embryo kidney (HEK) 293 cells. Sodium current measurements on Qube® were conducted as follows: automated 384-well patch-clamp assays on the Qube® platform (Sophion Biosciences) were used to measure the inhibition of sodium flow through human Nav1.8 and Nav1.5 channels. Whole-cell voltage-clamp recordings were performed in QChips® (Sophion Biosciences) at room temperature. Nav1.8 current measurements on Qube® were obtained as follows: Nav1.8 currents were elicited with a 10 second 1 Hertz (Hz) pulse train from a holding potential of −90 millivolts (mV), delivered to the cells once per minute in the control condition (DMSO only) and after compound addition. The 1 hertz pulse train stimulation consisted often test pulses to 10 millivolt (mV) for 20 milliseconds (ms), each of which was followed by a 980 millisecond repolarization to −67 millivolts. At the end of the 10 second pulse train stimulation, a 5 second hyperpolarization step to −100 millivolt (mV) was used to recover Nav1.8 from fast inactivation. The peak currents elicited by the 1st and 10th test pulses were used to determine IC50 values for resting inhibition and inactivated state inhibition. Nav1.5 current measurements on Qube® were obtained as follows: Nav1.5 currents were elicited with a 20 second 3 Hertz pulse train in the control condition (DMSO only) and after compound addition. The pulse train consisted of sixty 20 millisecond test pulses to 0 millivolt from a holding potential of −80 millivolt (mV). The average peak currents elicited by the last 3 test pulses were used to determine IC50 values for Nav1.5 inhibition.
The following buffers were used for the Qube® recordings: External buffer for Nav1.8 Qube® recording: 150 NaCl, 2 CaCl2, 5 KCl, 1 Mg Cl2, 10 HEPES, 12 Dextrose; External buffer for Qube® Nav1.5 recording: 120 N-Methyl-D-Glucamine, 40 NaCl, 1 KCl, 2.7 CaCl2), 5 HEPES, 0.5 MgCl2; and Internal buffer for Qube® recording: 120 CsF, 30 CsCl, 10 EGTA, 5 HEPES, 5 NaF, 2 MgCl2.
For all Qube® experiments offline analysis was used to determine percent inhibition as a function of drug concentration. IC50 values were determined by fitting to the Hill equation.
(The patch-clamp technique gives a direct electrical read-out from membranes.)

human Nav1.8, sequence (Q9Y5Y9 whole entry): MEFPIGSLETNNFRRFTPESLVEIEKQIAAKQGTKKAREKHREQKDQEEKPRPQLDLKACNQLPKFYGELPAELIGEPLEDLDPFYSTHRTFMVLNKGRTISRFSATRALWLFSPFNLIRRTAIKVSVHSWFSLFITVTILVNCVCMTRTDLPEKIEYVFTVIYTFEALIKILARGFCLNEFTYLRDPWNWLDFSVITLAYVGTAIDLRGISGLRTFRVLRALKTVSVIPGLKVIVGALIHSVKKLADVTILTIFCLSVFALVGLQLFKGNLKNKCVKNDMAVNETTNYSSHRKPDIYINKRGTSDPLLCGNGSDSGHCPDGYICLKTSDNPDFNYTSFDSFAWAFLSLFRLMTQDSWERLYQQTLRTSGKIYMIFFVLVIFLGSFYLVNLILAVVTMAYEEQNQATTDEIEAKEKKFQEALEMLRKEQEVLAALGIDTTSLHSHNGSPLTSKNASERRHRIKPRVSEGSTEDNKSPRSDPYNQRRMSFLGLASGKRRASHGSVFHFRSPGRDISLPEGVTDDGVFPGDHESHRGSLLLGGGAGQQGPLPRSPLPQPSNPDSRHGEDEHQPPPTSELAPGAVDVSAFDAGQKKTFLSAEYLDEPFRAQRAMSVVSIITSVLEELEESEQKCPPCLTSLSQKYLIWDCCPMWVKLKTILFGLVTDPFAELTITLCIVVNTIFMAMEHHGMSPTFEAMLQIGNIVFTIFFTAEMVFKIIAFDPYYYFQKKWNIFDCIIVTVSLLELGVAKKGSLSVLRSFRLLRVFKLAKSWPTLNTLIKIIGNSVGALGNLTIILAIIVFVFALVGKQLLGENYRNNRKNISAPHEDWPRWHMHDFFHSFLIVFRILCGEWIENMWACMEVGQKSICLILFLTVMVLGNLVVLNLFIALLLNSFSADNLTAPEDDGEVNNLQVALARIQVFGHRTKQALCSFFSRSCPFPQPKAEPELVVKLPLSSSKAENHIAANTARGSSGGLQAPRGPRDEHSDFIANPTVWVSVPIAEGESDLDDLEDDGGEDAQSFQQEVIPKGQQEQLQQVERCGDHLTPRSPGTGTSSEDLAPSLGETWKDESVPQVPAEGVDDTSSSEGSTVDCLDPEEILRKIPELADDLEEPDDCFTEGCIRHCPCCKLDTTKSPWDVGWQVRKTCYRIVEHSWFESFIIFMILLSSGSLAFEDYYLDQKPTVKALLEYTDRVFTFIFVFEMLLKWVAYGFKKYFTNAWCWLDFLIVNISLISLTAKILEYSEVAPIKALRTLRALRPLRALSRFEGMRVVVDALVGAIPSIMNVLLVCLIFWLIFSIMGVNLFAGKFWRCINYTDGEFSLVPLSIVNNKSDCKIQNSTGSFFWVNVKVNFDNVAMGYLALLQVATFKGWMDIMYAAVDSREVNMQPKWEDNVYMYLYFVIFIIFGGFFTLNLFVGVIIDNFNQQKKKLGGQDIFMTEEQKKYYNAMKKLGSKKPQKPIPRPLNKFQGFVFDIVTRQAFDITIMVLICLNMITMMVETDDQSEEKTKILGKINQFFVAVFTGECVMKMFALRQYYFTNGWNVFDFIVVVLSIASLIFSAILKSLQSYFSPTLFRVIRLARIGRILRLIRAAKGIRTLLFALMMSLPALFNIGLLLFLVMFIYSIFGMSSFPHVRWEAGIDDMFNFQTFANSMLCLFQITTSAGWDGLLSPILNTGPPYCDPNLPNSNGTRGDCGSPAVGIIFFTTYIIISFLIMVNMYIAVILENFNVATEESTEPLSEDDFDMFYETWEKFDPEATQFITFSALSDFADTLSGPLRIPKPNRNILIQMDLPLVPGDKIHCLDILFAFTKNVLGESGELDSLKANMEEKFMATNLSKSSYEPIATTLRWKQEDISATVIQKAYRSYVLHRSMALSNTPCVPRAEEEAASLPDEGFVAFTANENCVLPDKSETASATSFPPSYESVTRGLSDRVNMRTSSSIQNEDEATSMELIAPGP

Turning to `Cc1nc(N2CCCC(F)(F)CC2)c(C(=O)Nc2ccnc(S(N)(=O)=O)c2)cc1C(F)(F)F` [Example 184, 2-(4,4-difluoroazepan-1-yl)-6-methyl-N-(2-sulfamoylpyridin-4-yl)-5-(trifluoromethyl)nicotinamide], the IC50 is 0.5 nM.
